Entries after “also recorded” stand apart in the source; their conditions may differ. Like-named read-outs stand apart in the source and are kept apart here. Bridge positions count the residues as written; N and C are the ends. Ends that are not written are not given here. Peptide text beside a SMILES is read from it.
How the values were obtained:
[1] = test system: Single-donor human red blood cells; assay: Hemolysis assay; format: cell-based
Procedure, shortened: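 Peptides at 300 μg/ml (SySA library) or 128 μg/ml (SySA-5 optimization library) were incubated in triplicate with washed single-donor RBCs (1 × 10^9 cells/ml) for 3 h at 37 °C. Supernatant A540 was background-normalized to PBS and expressed relative to 1% Triton X-100 (100% hemolysis).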

[2] = test system: gram-positive and gram-negative pathogens, including colistin-resistant strains; assay: MIC against pathogen panel (tables S4 and S5, not shown); format: cell-based
Procedure: MICs were performed by a modifiedClinical and Laboratory Standards Institute) procedure. Stock peptides were diluted to 2.56 mg/ml in 50 μl of 0.01% acetic acid containing 0.2% bovine serum albumin. Peptide was then serially diluted twofold in this solution, and 10 μl of each dilution was added to a polypropylene 96-well plate (Corning, ref. no. 3879) in triplicate. Separately, E. coli W3110 or A. baumannii AB5075 was grown overnight in 5 ml of standard MH at 37°C. Cells from these cultures were diluted to a concentration of 5 × 10^5 to 6 × 10^5 cells/ml in either standard MH, MHII, RPMI, or fetal bovine serum, and 90 μl was added to each well of the 96-well plate containing diluted peptide. Plates were wrapped twice in parafilm and incubated at 37°C for 18 to 24 hours. Wells were examined by eye against wells with no bacteria for signs of growth. MICs were reported as the minimum concentration with no observable growth. In cases where triplicate samples differed, the concentration supported by the median of the three replicates was reported.
A. baumannii 17978 Lab Stock
A. baumannii 17978 R2 Lab Stock
V. cholerae C6706 Lab Stock
P. aeruginosa ATCC 27853 ATCC
K. pneumonia ATCC 1705 ATCC
S. aureus USA100 Lab Stock
Excel spreadsheet with chemically synthesized peptide properties and biochemical data.
Excel spreadsheet with all SynCH SLAY data analysis and potency score predictions

[3] = test system: Acinetobacter baumannii AB5075
Escherichia coli W3110 = format: cell-based; conditions: for Ec W3110 MIC MH: E. coli W3110, MH medium; for W3110 MIC MHII: E. coli W3110, MHII medium; for Ec W3110 MIC RPMI: E. coli W3110, RPMI medium
[4] = High-resolution LC-MS, percentage with intramolecular disulfide bond (%S-S); format: physicochemical
Procedure: Stock peptides were diluted into PBS (pH 7.4) at 0.1 mg/ml in a volume of 150 μl and placed into 2-ml autosampler vials with small volume inserts (Fisherbrand, 03-391-8). Samples were separated by a C8 LC column, and an extracted ion chromatogram was generated for the most prevalent charge state isotopes. Mass spectra were generated for each extracted LC peak using an Agilent Technologies 6546 Accurate Mass quadrupole orthogonal acceleration–time-of-flight LC-MS instrument. Analysis was performed using Agilent MassHunter Qualitative software v10. The isotope distribution for each LC peak from each sample was compared to predicted distributions created using Agilent’s Isotope Distribution Calculator. Percentages of molecules with disulfide bonds was determined by comparing the area under the curve for each LC peak containing a disulfide bond over the total area of all relevant peaks (sum area %) and reported as a mean of three technical replicates ± 1 SD.

[5] = Circular dichroism (CD) spectroscopy (secondary structure, aggregation); format: physicochemical; conditions: CD at 450 µg/ml to 50 µg/ml, 10 mM potassium phosphate pH 7.4
[6] = 100% fetal bovine serum, replicate 1
[7] = 100% fetal bovine serum, replicate 2
[8] = 100% fetal bovine serum, replicate 3

## CC(C)C[C@@H]1NC(=O)[C@H](CCCNC(=N)N)NC(=O)[C@H](C(C)C)NC(=O)[C@H](CCCCN)NC(=O)[C@@H]2CSSC[C@H](NC(=O)[C@H](CCCNC(=N)N)NC(=O)[C@H](CC(C)C)NC(=O)[C@H](CCCNC(=N)N)NC(=O)[C@H](C(C)C)NC(=O)[C@H](CCCNC(=N)N)NC(=O)[C@@H](N)CSSC[C@@H](C(=O)O)NC(=O)[C@H](CCCNC(=N)N)NC1=O)C(=O)N[C@@H](CCCNC(=N)N)C(=O)N[C@@H](CCCNC(=N)N)C(=O)N[C@@H](CCCNC(=N)N)C(=O)N[C@@H](CCCNC(=N)N)C(=O)N2 [SySA-5.17] (H-CRVRLRCRRRRCKVRLRC-OH; disulfide 1-18, 7-12 (inferred); N-terminus and C-terminus assumed)
[1]; hemolysis at 128 µg/ml
  fold less hemolytic (toxicity) than Protegrin-1: over 10 fold
[1]; hemolysis at 128 µg/ml, fold change relative to SySA-5
  Fold Change Hemolysis: 2.4
[1]; hemolysis at 128 µg/ml, listed as SySA 5.17
  fold less hemolytic (toxicity) than Protegrin-1: greater than ten-fold
[2]
  spectrum of activity: broad-spectrum activity
[3]; 100% fetal bovine serum, median of triplicate
  AB5075 MIC FBS: 32 mg/L
[3]; [6]
  AB5075 MIC FBS: 32 mg/L
[3]; [7]
  AB5075 MIC FBS: 32 mg/L
[3]; [8]
  AB5075 MIC FBS: 32 mg/L
[3]; Mueller-Hinton, replicate 1
  AB5075 MIC MH: 4 mg/L
[3]; Mueller-Hinton, replicate 2
  AB5075 MIC MH: 4 mg/L
[3]; Mueller-Hinton, replicate 3
  AB5075 MIC MH: 4 mg/L

## RGGRLCYCRRRFCVCVGR (disulfide (positions not given here)) [Protegrin]
Escherichia coli W3110
  Ec W3110 MIC MH: 0.5 mg/L
  W3110 MIC MHII: 8 mg/L
  Ec W3110 MIC RPMI: 0.5 mg/L
[1]
  hemolysis: 41.84%
[4]
  %S-S: 100%

## CC(C)C[C@@H]1NC(=O)[C@H](CCCNC(=N)N)NC(=O)[C@H](C(C)C)NC(=O)[C@H](CCCNC(=N)N)NC(=O)[C@H](CC(C)C)NC(=O)[C@@H](N)CSSC[C@@H](C(=O)O)NC(=O)[C@H](C(C)C)NC(=O)[C@H](CCC(N)=O)NC(=O)[C@H](CC(C)C)NC(=O)[C@H](CO)NC(=O)[C@H](C(C)C)NC(=O)[C@H](CCCCN)NC(=O)[C@H](C(C)C)NC(=O)[C@H](CCCNC(=N)N)NC(=O)CNC(=O)[C@H](CCCNC(=N)N)NC(=O)[C@H](CCCNC(=N)N)NC(=O)[C@H](CC(N)=O)NC(=O)[C@H](CC(N)=O)NC1=O [SySA-5] (H-CLRVRLNNRRGRVKVSLQVC-OH; disulfide 1-20; N-terminus and C-terminus assumed)
Escherichia coli W3110
  Ec W3110 MIC MH: 16 mg/L
  W3110 MIC MHII: 128 mg/L
  Ec W3110 MIC RPMI: 4 mg/L
Escherichia coli W3110; E. coli W3110, standard Mueller-Hinton broth, 37°C, 18-24 h, median of n=3
  W3110 MIC MH: 16 mg/L
Escherichia coli W3110; W3110
  W3110 MIC RPMI: 4 mg/L
[4]
  %S-S: 100%
[3]; [6]
  AB5075 MIC FBS: >128 mg/L
[3]; [7]
  AB5075 MIC FBS: >128 mg/L
[3]; [8]
  AB5075 MIC FBS: >128 mg/L
[3]; AB5075
  AB5075 MIC FBS: > 128 mg/L
  AB5075 MIC MH: 32 mg/L
[3]; Mueller-Hinton, replicate 1
  AB5075 MIC MH: 64 mg/L
[3]; Mueller-Hinton, replicate 2
  AB5075 MIC MH: 32 mg/L
[3]; Mueller-Hinton, replicate 3
  AB5075 MIC MH: 32 mg/L

## CC[C@H](C)[C@@H]1NC(=O)[C@H](CCCCN)NC(=O)[C@H](C(C)C)NC(=O)CNC(=O)[C@H](CCCNC(=N)N)NC(=O)[C@H](CCCNC(=N)N)NC(=O)[C@H](CCCNC(=N)N)NC(=O)[C@H](CC(N)=O)NC(=O)[C@H](CC(N)=O)NC(=O)[C@H](CC(C)C)NC(=O)[C@H](CCCNC(=N)N)NC(=O)[C@H](C(C)C)NC(=O)[C@H](CCCNC(=N)N)NC(=O)[C@H](C(C)C)NC(=O)[C@@H](N)CSSC[C@@H](C(=O)O)NC(=O)[C@H](C(C)C)NC(=O)[C@H](CCC(N)=O)NC(=O)[C@H](CC(C)C)NC(=O)[C@H](CO)NC1=O [SySA-49] (H-CVRVRLNNRRRGVKISLQVC-OH; disulfide 1-20; N-terminus and C-terminus assumed)
Escherichia coli W3110
  Ec W3110 MIC MH: 32 mg/L
  W3110 MIC MHII: > 128 mg/L
  Ec W3110 MIC RPMI: 8 mg/L
Escherichia coli W3110; W3110
  W3110 MIC MH: 32 mg/L
  W3110 MIC RPMI: 8 mg/L
[4]
  %S-S: 91.4%
[5]
  molar ellipticity of CD spectrum at different concentrations (aggregation): remained relatively constant regardless of increased concentration; also recorded: equivalent at increased and reduced concentrations

## CC[C@H](C)[C@@H]1NC(=O)[C@H](CCCCN)NC(=O)[C@H](CC(C)C)NC(=O)CNC(=O)[C@H](CCCNC(=N)N)NC(=O)[C@H](CCCNC(=N)N)NC(=O)[C@H](CCCNC(=N)N)NC(=O)[C@H](CC(N)=O)NC(=O)[C@H](CC(N)=O)NC(=O)[C@H](CC(C)C)NC(=O)[C@H](CCCNC(=N)N)NC(=O)[C@H](C(C)C)NC(=O)[C@H](CCCNC(=N)N)NC(=O)[C@H](CC(C)C)NC(=O)[C@@H](N)CSSC[C@@H](C(=O)O)NC(=O)[C@H](C(C)C)NC(=O)[C@H](CCC(N)=O)NC(=O)[C@H](CC(C)C)NC(=O)[C@H](CO)NC1=O [SySA-61] (H-CLRVRLNNRRRGLKISLQVC-OH; disulfide 1-20; N-terminus and C-terminus assumed)
Escherichia coli W3110
  Ec W3110 MIC MH: 32 mg/L
  W3110 MIC MHII: > 128 mg/L
  Ec W3110 MIC RPMI: 8 mg/L
Escherichia coli W3110; W3110
  W3110 MIC MH: 32 mg/L
  W3110 MIC RPMI: 8 mg/L
[4]
  %S-S: 91.5%
